Source: patent publication US10980889B1 (Revolution Medicines, Inc., priority 2018, dated 2021)

Key:
P-P70S6K (T389) = test: Cell based AlphaLISA assay, inhibition of P-P70S6K (T389) in MDA-MB-468 cells (mTORC1 substrate); conditions: AlphaLisa, two to four hours at 37° C.; for IC50: Homo sapiens, 4 h, read-out: pIC50 for Inhibition of mTORC1 and mTORC2 Substrate Phosphorylation p-P70S6K-(T389) (converted)
Procedure: (§1) Cell Based AlphaLISA Assays For Determining IC50 For Inhibition of P-Akt (S473), P-4E-BP1(T37/46), and P-P70S6K (T389) in MDA-MB-468 Cells
(§2) mTOR Kinase Cellular Assay
(§3) To measure functional activity of mTORC1 and mTORC2 in cells the phosphorylation of 4EBPT (Thr37/46) and P70S6K (Thr389), and AKT1/2/3 (Ser473) was monitored using AlphaLisa SureFire Ultra Kits (Perkin Elmer). […] Incubations were terminated by removal of the assay buffer and addition of lysis buffer provided with the assay kit. Samples were processed according to the manufacturer's instructions. The Alpha signal from the respective phosphoproteinswas measured in duplicate using a microplate reader (Envision, Perkin-Elmer or Spectramax M5, Molecular Devices). Inhibitor concentration response curves were analyzed using normalized IC50 regression curve filling with control based normalization.

P-4E-BP1 (T37/46) = test: Cell based AlphaLISA assay, inhibition of P-4E-BP1 (T37/46) in MDA-MB-468 cells (mTORC1 substrate); conditions: AlphaLisa, two to four hours at 37° C.; for IC50: Homo sapiens, 4 h, read-out: pIC50 for Inhibition of mTORC1 and mTORC2 Substrate Phosphorylation P-4E-BP1-(T37/46) (converted)
Procedure: as §1, §2, §3

P-Akt (S473) = test: Cell based AlphaLISA assay, inhibition of P-Akt (S473) in MDA-MB-468 cells (mTORC2 substrate); conditions: AlphaLisa, two to four hours at 37° C.; for IC50: Homo sapiens, 4 h, read-out: pIC50 for Inhibition of mTORC1 and mTORC2 Substrate Phosphorylation p-AKT1/2/3-(S473) (converted)
Procedure: as §1, §2, §3

Structure (SMILES)	IC50 (P-P70S6K (T389))	IC50 (P-4E-BP1 (T37/46))	IC50 (P-Akt (S473))	pIC50 for Inhibition of mTORC1 and mTORC2 Substrate Phosphorylation p-P70S6K-(T389) (P-P70S6K (T389))	pIC50 for Inhibition of mTORC1 and mTORC2 Substrate Phosphorylation P-4E-BP1-(T37/46) (P-4E-BP1 (T37/46))	pIC50 for Inhibition of mTORC1 and mTORC2 Substrate Phosphorylation p-AKT1/2/3-(S473) (P-Akt (S473))
CO[C@H]1C[C@@H]2CC[C@@H](C)[C@@](O)(O2)C(=O)C(=O)N2CCCC[C@H]2C(=O)O[C@H]([C@H](C)C[C@@H]2CC[C@@H](OC(=O)NCCOCCOCCOCCOCCOCCOCCOCCOCC(=O)N3CCc4cc(Cn5nc(-c6ccc7oc(N)nc7c6)c6c(N)ncnc65)ccc4C3)[C@H](OC)C2)C[C@@H](O)[C@H](C)/C=C(\C)[C@@H](O)[C@@H](OC)C(=O)[C@H](C)C[C@H](C)/C=C/C=C/C=C/1C [Example 28]	< 1 nM	< 3.16 nM	> 1000 nM			
CO[C@H]1C[C@@H]2CC[C@@H](C)[C@@](O)(O2)C(=O)C(=O)N2CCCC[C@H]2C(=O)O[C@H]([C@H](C)C[C@@H]2CC[C@@H](OC(=O)NCCOCCOCCOCCOCCOCCOCCOCCOCCC(=O)N3CCc4cc(Cn5nc(-c6ccc7oc(N)nc7c6)c6c(N)ncnc65)ccc4C3)[C@H](OC)C2)C[C@H](N=[N+]=[N-])[C@H](C)/C=C(\C)[C@@H](O)[C@@H](OC)C(=O)[C@H](C)C[C@H](C)/C=C/C=C/C=C/1C [Example 30]	< 1 nM	< 3.16 nM	3.16 to 31.6 nM			
CO[C@H]1C[C@@H]2CC[C@@H](C)[C@@](O)(O2)C(=O)C(=O)N2CCCC[C@H]2C(=O)O[C@H]([C@H](C)C[C@@H]2CC[C@@H](OC(=S)NCCOCCOCCOCCOCCOCCOCCOCCOCCC(=O)N3CCc4cc(Cn5nc(-c6ccc7oc(N)nc7c6)c6c(N)ncnc65)ccc4C3)[C@H](OC)C2)C[C@@H](O)[C@H](C)/C=C(\C)[C@@H](O)[C@@H](OC)C(=O)[C@H](C)C[C@H](C)/C=C/C=C/C=C/1C [Example 33]	< 1 nM	< 3.16 nM	> 1000 nM			
CO[C@H]1C[C@@H]2CC[C@@H](C)[C@@](O)(O2)C(=O)C(=O)N2CCCC[C@H]2C(=O)O[C@H]([C@H](C)C[C@@H]2CC[C@@H](OC(=S)NCCOCCOCCOCCOCCOCCOCCOCCOCCC(=O)N3CCc4cc(Cn5nc(-c6ccc7oc(N)nc7c6)c6c(N)ncnc65)ccc4C3)[C@H](OC)C2)C[C@@H](OC)[C@H](C)/C=C(\C)[C@@H](O)[C@@H](OC)C(=O)[C@H](C)C[C@H](C)/C=C/C=C/C=C/1C [Example 34]	< 1 nM	> 1000 nM	> 1000 nM			
CO[C@H]1C[C@@H]2CC[C@@H](C)[C@@](O)(O2)C(=O)C(=O)N2CCCC[C@H]2C(=O)O[C@H]([C@H](C)C[C@@H]2CC[C@@H](OC(=O)NCCOCCOCCOCCOCCOCCOCCOCCOCCC(=O)NCc3ccc(Cn4nc(-c5ccc6oc(N)nc6c5)c5c(N)ncnc54)cc3)[C@H](OC)C2)CC(=O)[C@H](C)/C=C(\C)[C@@H](O)[C@@H](OC)C(=O)[C@H](C)C[C@H](C)/C=C/C=C/C=C/1C [Example 35]	< 1 nM	< 3.16 nM	3.16 to 31.6 nM			
CO[C@H]1C[C@@H]2CC[C@@H](C)[C@@](O)(O2)C(=O)C(=O)N2CCCC[C@H]2C(=O)O[C@H]([C@H](C)C[C@@H]2CC[C@@H](OC(=O)NCCOCCOCCOCCOCCOCCOCCOCCOCCC(=O)NCc3ccc(Cn4nc(-c5ccc6oc(N)nc6c5)c5c(N)ncnc54)cc3)[C@H](OC)C2)C[C@@H](O)[C@H](C)/C=C(\C)[C@@H](O)[C@@H](OC)C(=O)[C@H](C)C[C@H](C)/C=C/C=C/C=C/1C [Example 36]	< 1 nM	< 3.16 nM	> 1000 nM			
CO[C@H]1C[C@@H]2CC[C@@H](C)[C@@](O)(O2)C(=O)C(=O)N2CCCC[C@H]2C(=O)O[C@H]([C@H](C)C[C@@H]2CC[C@@H](OC(=O)NCCOCCOCCOCCOCCOCCOCCOCCOCCC(=O)NCc3ccc(Cn4nc(-c5ccc6oc(N)nc6c5)c5c(N)ncnc54)cc3)[C@H](OC)C2)C[C@@H](OC)[C@H](C)/C=C(\C)[C@@H](O)[C@@H](OC)C(=O)[C@H](C)C[C@H](C)/C=C/C=C/C=C/1C [Example 37]	< 1 nM	< 3.16 nM	> 1000 nM			
CO[C@H]1C[C@@H]2CC[C@@H](C)[C@@](O)(O2)C(=O)C(=O)N2CCCC[C@H]2C(=O)O[C@H]([C@H](C)C[C@@H]2CC[C@@H](OC(=O)NCCOCCOCCOCCOCCOCCOCCOCCOCCC(=O)NCc3ccc(Cn4nc(-c5ccc6oc(N)nc6c5)c5c(N)ncnc54)cc3)[C@H](OC)C2)C[C@H](N=[N+]=[N-])[C@H](C)/C=C(\C)[C@@H](O)[C@@H](OC)C(=O)[C@H](C)C[C@H](C)/C=C/C=C/C=C/1C [Example 38]	< 1 nM	> 1000 nM	> 1000 nM			
CO[C@H]1C[C@@H]2CC[C@@H](C)[C@@](O)(O2)C(=O)C(=O)N2CCCC[C@H]2C(=O)O[C@H]([C@H](C)C[C@@H]2CC[C@@H](OC(=S)NCCOCCOCCOCCOCCOCCOCCOCCOCCC(=O)NCc3ccc(Cn4nc(-c5ccc6oc(N)nc6c5)c5c(N)ncnc54)cc3)[C@H](OC)C2)C[C@@H](O)[C@H](C)/C=C(\C)[C@@H](O)[C@@H](OC)C(=O)[C@H](C)C[C@H](C)/C=C/C=C/C=C/1C [Example 39]	< 1 nM	< 3.16 nM	< 3.16 nM			
CO[C@H]1C[C@@H]2CC[C@@H](C)[C@@](O)(O2)C(=O)C(=O)N2CCCC[C@H]2C(=O)O[C@H]([C@H](C)C[C@@H]2CC[C@@H](OC(=O)NCCOCCOCCOCCOCCOCCOCCOCCOCCC(=O)NCCS(=O)(=O)c3ccc(C(=O)N4CCOc5ccc(-c6ccc(N)nc6)cc5C4)c(C)c3)[C@H](OC)C2)CC(=O)[C@H](C)/C=C(\C)[C@@H](O)[C@@H](OC)C(=O)[C@H](C)C[C@H](C)/C=C/C=C/C=C/1C [Example 40]	< 1 nM	< 3.16 nM	3.16 to 31.6 nM			
CO[C@H]1C[C@@H]2CC[C@@H](C)[C@@](O)(O2)C(=O)C(=O)N2CCCC[C@H]2C(=O)O[C@H]([C@H](C)C[C@@H]2CC[C@@H](OC(=O)NCCOCCOCCOCCOCCOCCOCCOCCOCCC(=O)NCCS(=O)(=O)c3ccc(C(=O)N4CCOc5ccc(-c6ccc(N)nc6)cc5C4)c(C)c3)[C@H](OC)C2)C[C@@H](O)[C@H](C)/C=C(\C)[C@@H](O)[C@@H](OC)C(=O)[C@H](C)C[C@H](C)/C=C/C=C/C=C/1C [Example 41]	< 1 nM	< 3.16 nM	> 1000 nM			
CO[C@H]1C[C@@H]2CC[C@@H](C)[C@@](O)(O2)C(=O)C(=O)N2CCCC[C@H]2C(=O)O[C@H]([C@H](C)C[C@@H]2CC[C@@H](OC(=O)NCCOCCOCCOCCOCCOCCOCCOCCOCCC(=O)NCCS(=O)(=O)c3ccc(C(=O)N4CCOc5ccc(-c6ccc(N)nc6)cc5C4)c(C)c3)[C@H](OC)C2)C[C@@H](OC)[C@H](C)/C=C(\C)[C@@H](O)[C@@H](OC)C(=O)[C@H](C)C[C@H](C)/C=C/C=C/C=C/1C [Example 42]	< 1 nM	< 3.16 nM	3.16 to 31.6 nM			
CO[C@H]1C[C@@H]2CC[C@@H](C)[C@@](O)(O2)C(=O)C(=O)N2CCCC[C@H]2C(=O)O[C@H]([C@H](C)C[C@@H]2CC[C@@H](OC(=O)N3CCc4nc(N5CCN(c6ncc(C(=O)N7CCN(c8ncc(C(=O)N9CCc%10cc(Cn%11nc(-c%12cnc%13oc(N)nc%13c%12)c%12c(N)ncnc%12%11)ccc%10C9)cn8)CC7)cn6)CC5)ncc4C3)[C@H](OC)C2)CC(=O)[C@H](C)/C=C(\C)[C@@H](O)[C@@H](OC)C(=O)[C@H](C)C[C@H](C)/C=C/C=C/C=C/1C [Example 62]				++ (9 > pIC50 ≥ 8)	− (<6)	− (<6)
CO[C@H]1C[C@@H]2CC[C@@H](C)[C@@](O)(O2)C(=O)C(=O)N2CCCC[C@H]2C(=O)O[C@H]([C@H](C)C[C@@H]2CC[C@@H](OC(=O)NCCOCCOCCOCCOCCOCCOCCOCCOCC(=O)N3CCc4cc(Cn5nc(-c6ccc7oc(N)nc7c6)c6c(N)ncnc65)ccc4C3)[C@H](OC)C2)C[C@@H](O)[C@H](C)/C=C(\C)[C@@H](O)[C@@H](OC)C(=O)[C@H](C)C[C@H](C)/C=C/C=C/C=C/1C [Example 72]				+++ (≥9)	+++ (≥8.5)	+++ (≥8.5)
CO[C@H]1C[C@@H]2CC[C@@H](C)[C@@](O)(O2)C(=O)C(=O)N2CCCC[C@H]2C(=O)O[C@H]([C@H](C)C[C@@H]2CC[C@@H](OC(=O)NCCOCCOCCOCCOCCOCCOCCOCCOCCC(=O)N3CCc4cc(Cn5nc(-c6ccc7oc(N)nc7c6)c6c(N)ncnc65)ccc4C3)[C@H](OC)C2)C[C@@H](O)[C@H](C)/C=C(\C)[C@@H](O)[C@@H](OC)C(=O)[C@H](C)C[C@H](C)/C=C/C=C/C=C/1C [Example 75]				+++ (≥9)	+++ (≥8.5)	++ (8.5 > pIC50 ≥ 7.5)
